Assays:
Test in all cases: Broader kinase panel (PerkinElmer)
Format in all cases: biochemical
[1] = target: T1, DYRK3 (Homo sapiens, UniProt O43781); settings: 100 nM; read-out: Average Percent Inhibition
T1 construct: purchased In-house HTRF panel (56 kinases) and PerkinElmer (161-kinase panel)
Text: (§1) […]. […] […].

[2] = target: MINK (Homo sapiens, UniProt Q8N4C8); settings: 100 nM; read-out: Average Percent Inhibition
Text: as §1

[3] = target: T2, DCAMKL1 (Homo sapiens, UniProt O15075); settings: 100 nM; read-out: Average Percent Inhibition
T2 construct: purchased In-house HTRF panel (56 kinases) and PerkinElmer (161-kinase panel)
Text: as §1

[4] = target: T3, DDR2 (Homo sapiens, UniProt Q16832); settings: 100 nM; read-out: Average Percent Inhibition
T3 construct: purchased In-house HTRF panel (56 kinases) and PerkinElmer (161-kinase panel)
Text: as §1

[5] = target: T4, KIT (Homo sapiens, UniProt P10721); settings: 100 nM; read-out: Average Percent Inhibition
T4 construct: purchased In-house HTRF panel (56 kinases) and PerkinElmer (161-kinase panel)
Text: as §1

[6] = target: IGF1R (Homo sapiens, UniProt P08069); settings: 100 nM; read-out: Average Percent Inhibition
Text: as §1

[7] = target: PAK4 (Homo sapiens, UniProt O96013); settings: 100 nM; read-out: Average Percent Inhibition
Text: as §1

[8] = target: T5, LTK (Homo sapiens, UniProt P29376); settings: 100 nM; read-out: Average Percent Inhibition
T5 construct: purchased In-house HTRF panel (56 kinases) and PerkinElmer (161-kinase panel)
Text: as §1

[9] = target: T6, Ca MK2a (Homo sapiens, UniProt Q9UQM7); settings: 100 nM; read-out: Average Percent Inhibition
T6 construct: purchased In-house HTRF panel (56 kinases) and PerkinElmer (161-kinase panel)
Text: as §1

[10] = target: T7, LYNB (Homo sapiens, UniProt P07948); settings: 100 nM; read-out: Average Percent Inhibition
T7 construct: purchased In-house HTRF panel (56 kinases) and PerkinElmer (161-kinase panel)
Text: as §1

[11] = target: T8, c-Raf (Homo sapiens, UniProt P04049); settings: 100 nM; read-out: Average Percent Inhibition
T8 construct: purchased In-house HTRF panel (56 kinases) and PerkinElmer (161-kinase panel)
Text: as §1

[12] = target: T9, MARK2 (Homo sapiens, UniProt Q7KZI7); settings: 100 nM; read-out: Average Percent Inhibition
T9 construct: purchased In-house HTRF panel (56 kinases) and PerkinElmer (161-kinase panel)
Text: as §1

[13] = target: T10, PDGFR BETA (Homo sapiens, UniProt P09619); settings: 100 nM; read-out: Average Percent Inhibition
T10 construct: purchased In-house HTRF panel (56 kinases) and PerkinElmer (161-kinase panel)
Text: as §1

[14] = target: T11, JAK2 (Homo sapiens, UniProt O60674); settings: 100 nM; read-out: Average Percent Inhibition
T11 construct: purchased In-house HTRF panel (56 kinases) and PerkinElmer (161-kinase panel)
Text: as §1

[15] = target: T12, FYN (Homo sapiens, UniProt P06241); settings: 100 nM; read-out: Average Percent Inhibition
T12 construct: purchased In-house HTRF panel (56 kinases) and PerkinElmer (161-kinase panel)
Text: as §1

[16] = target: T13, Ca MKII_gamma (Homo sapiens, UniProt Q13555); settings: 100 nM; read-out: Average Percent Inhibition
T13 construct: purchased In-house HTRF panel (56 kinases) and PerkinElmer (161-kinase panel)
Text: as §1

[17] = target: EGFR (Homo sapiens, UniProt P00533); settings: 100 nM; read-out: Average Percent Inhibition
Text: as §1

[18] = target: T14, CAMK4 (Homo sapiens, UniProt Q16566); settings: 100 nM; read-out: Average Percent Inhibition
T14 construct: purchased In-house HTRF panel (56 kinases) and PerkinElmer (161-kinase panel)
Text: as §1

[19] = target: T15, Erk2 (Homo sapiens, UniProt P28482); settings: 100 nM; read-out: Average Percent Inhibition
T15 construct: purchased In-house HTRF panel (56 kinases) and PerkinElmer (161-kinase panel)
Text: as §1

[20] = target: T16, BLK (Homo sapiens, UniProt P51451); settings: 100 nM; read-out: Average Percent Inhibition
T16 construct: purchased In-house HTRF panel (56 kinases) and PerkinElmer (161-kinase panel)
Text: as §1

[21] = target: T17, FRK (Homo sapiens, UniProt P42685); settings: 100 nM; read-out: Average Percent Inhibition
T17 construct: purchased In-house HTRF panel (56 kinases) and PerkinElmer (161-kinase panel)
Text: as §1

[22] = target: T18, PKC-gamma (Homo sapiens, UniProt P05129); settings: 100 nM; read-out: Average Percent Inhibition
T18 construct: purchased In-house HTRF panel (56 kinases) and PerkinElmer (161-kinase panel)
Text: as §1

[23] = target: T19, DCAMKL2 (Homo sapiens, UniProt Q8N568); settings: 100 nM; read-out: Average Percent Inhibition
T19 construct: purchased In-house HTRF panel (56 kinases) and PerkinElmer (161-kinase panel)
Text: as §1

[24] = target: T20, p38alpha/SAPK2a (T106M) (Homo sapiens, UniProt Q16539, T106M); settings: 100 nM; read-out: Average Percent Inhibition
T20 construct: purchased In-house HTRF panel (56 kinases) and PerkinElmer (161-kinase panel)
Text: as §1

[25] = target: T21, DAPK1 (Homo sapiens, UniProt P53355); settings: 100 nM; read-out: Average Percent Inhibition
T21 construct: purchased In-house HTRF panel (56 kinases) and PerkinElmer (161-kinase panel)
Text: as §1

[26] = target: T22, Flt3(D835Y) (Homo sapiens, UniProt P36888, D835Y); settings: 100 nM; read-out: Average Percent Inhibition
T22 construct: purchased In-house HTRF panel (56 kinases) and PerkinElmer (161-kinase panel)
Text: as §1

[27] = target: T23, PIM3 (Homo sapiens, UniProt Q86V86); settings: 100 nM; read-out: Average Percent Inhibition
T23 construct: purchased In-house HTRF panel (56 kinases) and PerkinElmer (161-kinase panel)
Text: as §1

[28] = target: T24, EPHA5 (Homo sapiens, UniProt P54756); settings: 100 nM; read-out: Average Percent Inhibition
T24 construct: purchased In-house HTRF panel (56 kinases) and PerkinElmer (161-kinase panel)
Text: as §1

[29] = target: T25, Abl (H396P) (Homo sapiens, UniProt P00519, H396P); settings: 100 nM; read-out: Average Percent Inhibition
T25 construct: purchased In-house HTRF panel (56 kinases) and PerkinElmer (161-kinase panel)
Text: as §1

[30] = test system: CAMK2; settings: 100 nM
Text: as §1

[31] = target: T26, SRC (Homo sapiens, UniProt P12931); settings: 100 nM; read-out: Average Percent Inhibition
T26 construct: purchased In-house HTRF panel (56 kinases) and PerkinElmer (161-kinase panel)
Text: as §1

[32] = target: T27, TSSK2 (Homo sapiens, UniProt Q96PF2); settings: 100 nM; read-out: Average Percent Inhibition
T27 construct: purchased In-house HTRF panel (56 kinases) and PerkinElmer (161-kinase panel)
Text: as §1

[33] = target: T28, Yes (Homo sapiens, UniProt P07947); settings: 100 nM; read-out: Average Percent Inhibition
T28 construct: purchased In-house HTRF panel (56 kinases) and PerkinElmer (161-kinase panel)
Text: as §1

[34] = target: SYK (Homo sapiens, UniProt P43405); settings: 100 nM; read-out: Average Percent Inhibition
Text: as §1

[35] = target: T29, TXK (Homo sapiens, UniProt P42681); settings: 100 nM; read-out: Average Percent Inhibition
T29 construct: purchased In-house HTRF panel (56 kinases) and PerkinElmer (161-kinase panel)
Text: as §1

[36] = target: T30, c-TAK1 (Homo sapiens, UniProt P27448); settings: 100 nM; read-out: Average Percent Inhibition
T30 construct: purchased In-house HTRF panel (56 kinases) and PerkinElmer (161-kinase panel)
Text: as §1

[37] = target: T31, EPHB1 (Homo sapiens, UniProt P54762); settings: 100 nM; read-out: Average Percent Inhibition
T31 construct: purchased In-house HTRF panel (56 kinases) and PerkinElmer (161-kinase panel)
Text: as §1

[38] = target: T32, FGR (Homo sapiens, UniProt P09769); settings: 100 nM; read-out: Average Percent Inhibition
T32 construct: purchased In-house HTRF panel (56 kinases) and PerkinElmer (161-kinase panel)
Text: as §1

[39] = target: T33, PKG1-beta (Homo sapiens, UniProt Q13976); settings: 100 nM; read-out: Average Percent Inhibition
T33 construct: purchased In-house HTRF panel (56 kinases) and PerkinElmer (161-kinase panel)
Text: as §1

[40] = target: T34, Arg (Homo sapiens, UniProt P42684); settings: 100 nM; read-out: Average Percent Inhibition
T34 construct: purchased In-house HTRF panel (56 kinases) and PerkinElmer (161-kinase panel)
Text: as §1

[41] = target: T35, PHKG2 (Homo sapiens, UniProt P15735); settings: 100 nM; read-out: Average Percent Inhibition
T35 construct: purchased In-house HTRF panel (56 kinases) and PerkinElmer (161-kinase panel)
Text: as §1

[42] = target: T36, PAK2 (Homo sapiens, UniProt Q13177); settings: 100 nM; read-out: Average Percent Inhibition
T36 construct: purchased In-house HTRF panel (56 kinases) and PerkinElmer (161-kinase panel)
Text: as §1

[43] = target: T37, BRSK1 (Homo sapiens, UniProt Q8TDC3); settings: 100 nM; read-out: Average Percent Inhibition
T37 construct: purchased In-house HTRF panel (56 kinases) and PerkinElmer (161-kinase panel)
Text: as §1

T30 sequence (P27448 whole entry): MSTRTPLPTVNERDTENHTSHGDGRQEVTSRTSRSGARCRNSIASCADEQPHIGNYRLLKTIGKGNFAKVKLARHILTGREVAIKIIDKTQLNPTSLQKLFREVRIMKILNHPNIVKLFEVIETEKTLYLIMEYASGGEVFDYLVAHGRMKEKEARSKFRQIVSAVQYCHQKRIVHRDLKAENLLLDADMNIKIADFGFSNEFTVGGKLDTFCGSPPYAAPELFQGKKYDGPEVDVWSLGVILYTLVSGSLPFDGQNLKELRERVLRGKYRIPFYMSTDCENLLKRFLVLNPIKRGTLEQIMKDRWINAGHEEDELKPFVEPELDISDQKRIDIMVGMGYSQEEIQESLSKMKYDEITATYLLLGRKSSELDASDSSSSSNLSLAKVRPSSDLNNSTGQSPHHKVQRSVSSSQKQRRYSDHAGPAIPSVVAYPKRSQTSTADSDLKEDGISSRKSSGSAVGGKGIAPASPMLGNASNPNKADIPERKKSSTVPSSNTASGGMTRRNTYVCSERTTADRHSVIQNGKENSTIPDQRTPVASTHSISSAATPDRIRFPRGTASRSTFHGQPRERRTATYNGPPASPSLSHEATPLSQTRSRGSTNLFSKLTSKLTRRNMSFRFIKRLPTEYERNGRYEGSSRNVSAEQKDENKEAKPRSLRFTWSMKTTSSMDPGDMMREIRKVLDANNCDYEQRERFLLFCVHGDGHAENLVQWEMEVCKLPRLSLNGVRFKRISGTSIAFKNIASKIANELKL
T21 sequence (P53355 whole entry): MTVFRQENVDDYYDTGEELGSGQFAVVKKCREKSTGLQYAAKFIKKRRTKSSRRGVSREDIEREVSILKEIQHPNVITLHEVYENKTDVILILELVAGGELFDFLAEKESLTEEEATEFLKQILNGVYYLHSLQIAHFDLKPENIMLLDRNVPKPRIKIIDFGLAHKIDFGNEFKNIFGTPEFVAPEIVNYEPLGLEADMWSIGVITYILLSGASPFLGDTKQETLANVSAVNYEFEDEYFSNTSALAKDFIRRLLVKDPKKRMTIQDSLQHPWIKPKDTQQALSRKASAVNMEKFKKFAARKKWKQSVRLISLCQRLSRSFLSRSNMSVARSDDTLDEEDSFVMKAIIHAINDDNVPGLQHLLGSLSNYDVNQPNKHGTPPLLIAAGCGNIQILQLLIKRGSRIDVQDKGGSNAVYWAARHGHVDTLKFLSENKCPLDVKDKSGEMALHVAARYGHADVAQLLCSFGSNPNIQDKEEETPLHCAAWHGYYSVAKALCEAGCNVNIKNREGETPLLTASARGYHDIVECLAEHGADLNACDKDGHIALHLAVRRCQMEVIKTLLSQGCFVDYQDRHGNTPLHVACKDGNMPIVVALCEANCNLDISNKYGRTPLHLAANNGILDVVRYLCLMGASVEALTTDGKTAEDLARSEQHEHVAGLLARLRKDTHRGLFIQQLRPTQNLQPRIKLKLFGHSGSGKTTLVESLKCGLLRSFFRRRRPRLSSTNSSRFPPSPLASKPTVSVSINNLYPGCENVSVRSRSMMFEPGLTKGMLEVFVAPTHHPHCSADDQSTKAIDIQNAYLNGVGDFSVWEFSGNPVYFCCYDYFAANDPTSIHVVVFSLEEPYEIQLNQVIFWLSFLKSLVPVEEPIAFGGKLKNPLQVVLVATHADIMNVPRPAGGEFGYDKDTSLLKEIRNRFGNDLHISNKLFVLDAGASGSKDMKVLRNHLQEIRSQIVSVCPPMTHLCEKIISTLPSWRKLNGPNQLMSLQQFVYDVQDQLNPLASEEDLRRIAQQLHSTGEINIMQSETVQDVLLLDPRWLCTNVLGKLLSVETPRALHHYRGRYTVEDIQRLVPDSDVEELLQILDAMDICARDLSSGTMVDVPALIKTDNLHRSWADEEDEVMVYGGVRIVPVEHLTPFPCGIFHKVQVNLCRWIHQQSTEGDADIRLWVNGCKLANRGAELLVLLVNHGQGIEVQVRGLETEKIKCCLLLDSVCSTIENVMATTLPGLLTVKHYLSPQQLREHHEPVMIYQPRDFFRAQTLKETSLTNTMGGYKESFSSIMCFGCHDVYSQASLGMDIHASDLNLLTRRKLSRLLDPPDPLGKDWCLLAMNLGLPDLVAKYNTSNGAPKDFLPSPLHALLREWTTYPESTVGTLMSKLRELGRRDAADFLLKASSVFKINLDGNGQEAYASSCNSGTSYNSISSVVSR
T12 sequence (P06241 whole entry): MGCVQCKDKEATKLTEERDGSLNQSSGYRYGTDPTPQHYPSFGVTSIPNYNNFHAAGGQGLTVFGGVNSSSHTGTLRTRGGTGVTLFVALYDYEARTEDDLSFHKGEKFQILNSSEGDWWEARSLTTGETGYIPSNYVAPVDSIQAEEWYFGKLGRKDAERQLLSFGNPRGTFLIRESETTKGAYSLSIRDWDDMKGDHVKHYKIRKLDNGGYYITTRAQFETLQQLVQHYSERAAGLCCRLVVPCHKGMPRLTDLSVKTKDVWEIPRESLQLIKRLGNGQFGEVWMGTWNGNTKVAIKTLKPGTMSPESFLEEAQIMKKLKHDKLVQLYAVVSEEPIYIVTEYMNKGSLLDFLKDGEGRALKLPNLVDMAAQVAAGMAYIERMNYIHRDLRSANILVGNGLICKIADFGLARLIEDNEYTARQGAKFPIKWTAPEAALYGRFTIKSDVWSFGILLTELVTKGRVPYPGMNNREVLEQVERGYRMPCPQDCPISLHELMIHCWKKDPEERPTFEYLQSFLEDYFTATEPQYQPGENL
T19 sequence (Q8N568 whole entry): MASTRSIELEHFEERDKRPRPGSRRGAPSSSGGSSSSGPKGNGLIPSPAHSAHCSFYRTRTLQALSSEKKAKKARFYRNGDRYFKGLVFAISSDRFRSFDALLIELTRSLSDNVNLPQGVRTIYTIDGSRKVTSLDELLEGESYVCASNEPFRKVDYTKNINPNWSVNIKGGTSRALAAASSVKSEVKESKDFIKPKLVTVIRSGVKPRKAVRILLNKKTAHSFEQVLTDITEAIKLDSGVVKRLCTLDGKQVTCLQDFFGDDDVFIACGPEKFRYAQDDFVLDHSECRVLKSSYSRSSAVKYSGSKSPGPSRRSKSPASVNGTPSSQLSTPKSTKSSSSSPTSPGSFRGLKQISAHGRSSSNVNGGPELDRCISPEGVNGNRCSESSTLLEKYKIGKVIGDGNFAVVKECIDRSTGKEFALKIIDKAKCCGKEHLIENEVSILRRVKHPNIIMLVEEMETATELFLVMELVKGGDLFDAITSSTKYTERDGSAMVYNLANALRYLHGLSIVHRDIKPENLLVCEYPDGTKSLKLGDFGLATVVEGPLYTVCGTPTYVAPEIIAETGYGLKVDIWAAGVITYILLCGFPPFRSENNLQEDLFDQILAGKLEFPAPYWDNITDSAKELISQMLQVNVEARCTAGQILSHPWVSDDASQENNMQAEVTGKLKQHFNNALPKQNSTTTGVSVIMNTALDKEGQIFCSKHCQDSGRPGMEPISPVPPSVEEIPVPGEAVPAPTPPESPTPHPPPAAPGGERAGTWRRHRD
T34 sequence (P42684 whole entry): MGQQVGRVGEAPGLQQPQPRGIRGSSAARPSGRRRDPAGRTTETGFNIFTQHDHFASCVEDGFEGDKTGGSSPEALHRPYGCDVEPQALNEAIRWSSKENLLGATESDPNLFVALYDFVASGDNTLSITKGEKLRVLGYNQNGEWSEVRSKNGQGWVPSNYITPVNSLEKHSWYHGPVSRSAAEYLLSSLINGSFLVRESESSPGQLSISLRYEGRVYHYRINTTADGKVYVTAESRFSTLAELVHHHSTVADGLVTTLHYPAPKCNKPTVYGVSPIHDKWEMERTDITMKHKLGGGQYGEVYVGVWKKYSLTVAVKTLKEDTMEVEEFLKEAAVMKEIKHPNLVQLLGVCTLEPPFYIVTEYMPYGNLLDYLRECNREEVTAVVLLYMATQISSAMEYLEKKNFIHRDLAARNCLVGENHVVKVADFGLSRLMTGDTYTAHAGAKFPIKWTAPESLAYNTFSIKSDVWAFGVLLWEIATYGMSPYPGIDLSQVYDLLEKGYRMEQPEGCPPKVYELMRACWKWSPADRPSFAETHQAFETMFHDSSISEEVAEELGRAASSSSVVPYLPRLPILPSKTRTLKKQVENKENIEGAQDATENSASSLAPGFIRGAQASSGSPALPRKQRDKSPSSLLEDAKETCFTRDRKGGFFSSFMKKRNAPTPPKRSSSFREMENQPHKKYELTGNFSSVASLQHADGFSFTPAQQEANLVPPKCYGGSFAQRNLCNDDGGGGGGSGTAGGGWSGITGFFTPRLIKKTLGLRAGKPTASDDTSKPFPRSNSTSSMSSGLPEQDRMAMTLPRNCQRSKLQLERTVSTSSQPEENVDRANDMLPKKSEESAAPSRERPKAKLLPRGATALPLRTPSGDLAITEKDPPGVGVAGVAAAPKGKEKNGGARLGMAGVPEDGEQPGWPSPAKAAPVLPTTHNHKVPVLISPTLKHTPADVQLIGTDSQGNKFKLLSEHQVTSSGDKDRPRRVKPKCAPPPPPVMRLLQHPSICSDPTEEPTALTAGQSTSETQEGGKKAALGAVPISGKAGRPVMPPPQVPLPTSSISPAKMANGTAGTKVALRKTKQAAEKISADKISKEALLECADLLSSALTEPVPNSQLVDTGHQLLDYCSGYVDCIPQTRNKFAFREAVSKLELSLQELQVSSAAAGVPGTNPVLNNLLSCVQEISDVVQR
T27 sequence (Q96PF2 whole entry): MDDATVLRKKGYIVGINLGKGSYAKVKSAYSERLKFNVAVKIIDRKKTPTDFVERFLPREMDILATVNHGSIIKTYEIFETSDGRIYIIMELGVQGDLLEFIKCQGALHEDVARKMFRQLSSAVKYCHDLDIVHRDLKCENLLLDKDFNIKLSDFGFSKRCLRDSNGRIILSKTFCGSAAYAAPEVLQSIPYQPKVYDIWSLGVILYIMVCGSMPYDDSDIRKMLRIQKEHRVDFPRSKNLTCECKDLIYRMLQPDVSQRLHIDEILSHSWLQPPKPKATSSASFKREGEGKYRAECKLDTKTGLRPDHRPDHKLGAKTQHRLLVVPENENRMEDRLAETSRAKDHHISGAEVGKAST

## CCN1C(=O)N(c2c(F)c(OC)cc(OC)c2F)Cc2cnc3[nH]c(CN4CCOCC4)cc3c21 [INCB054828, pemigatinib]
[1]
  inhibition at 0.1 µM: 0%
[2]
  inhibition at 0.1 µM: 2%
[3]
  inhibition at 0.1 µM: -4%
[4]
  inhibition at 0.1 µM: -1%
[5]
  inhibition at 0.1 µM: 4%
[6]
  inhibition at 0.1 µM: 1%
[7]
  inhibition at 0.1 µM: 5%
[8]
  inhibition at 0.1 µM: -17%
[9]
  inhibition at 0.1 µM: 2%
[10]
  inhibition at 0.1 µM: 9%
[11]
  inhibition at 0.1 µM: 3%
[12]
  inhibition at 0.1 µM: 5%
[13]
  inhibition at 0.1 µM: 6%
[14]
  inhibition at 0.1 µM: 8%
[15]
  inhibition at 0.1 µM: -1%
[16]
  inhibition at 0.1 µM: -9%
[17]
  inhibition at 0.1 µM: 23%
[18]
  inhibition at 0.1 µM: -1%
[19]
  inhibition at 0.1 µM: 3%
[20]
  inhibition at 0.1 µM: -10%
[21]
  inhibition at 0.1 µM: 0%
[22]
  inhibition at 0.1 µM: 7%
[23]
  inhibition at 0.1 µM: 3%
[24]
  inhibition at 0.1 µM: -3%
[25]
  inhibition at 0.1 µM: 1%
[26]
  inhibition at 0.1 µM: 1%
[27]
  inhibition at 0.1 µM: -4%
[28]
  inhibition at 0.1 µM: 2%
[29]
  inhibition at 0.1 µM: -1%
[30]
  Average Percent Inhibition: 2%
[31]
  inhibition at 0.1 µM: 1%
[32]
  inhibition at 0.1 µM: -3%
[33]
  inhibition at 0.1 µM: 3%
[34]
  inhibition at 0.1 µM: -2%
[35]
  inhibition at 0.1 µM: -7%
[36]
  inhibition at 0.1 µM: 2%
[37]
  inhibition at 0.1 µM: 0%
[38]
  inhibition at 0.1 µM: 3%
[39]
  inhibition at 0.1 µM: -2%
[40]
  inhibition at 0.1 µM: -4%
[41]
  inhibition at 0.1 µM: -1%
[42]
  inhibition at 0.1 µM: 0%
[43]
  inhibition at 0.1 µM: -4%

Source: paper PMC7313537 (PLoS ONE, 2020)
